Assay results: patent US12178818B2, “Methods for treating immune thrombocytopenia by administering (R)-2-[3-[4-amino-3-(2-fluoro-4-phenoxy-phenyl)pyrazolo[3,4-d]pyrimidin-1-yl]piperidine-1-carbonyl]-4-methyl-4-[4-(oxetan-3-yl)piperazin-1-yl]pent-2-enenitrile” (Principia Biopharma Inc., priority 2019, dated 2024)

What was measured:
251-kinase panel = test: 251-kinase panel, kinase selectivity; format: biochemical; settings: 1 μM
human B cell activation = human B cell activation in vitro; format: cell-based
Fc receptor signaling = test: antibody mediated activation of immune cells in vitro; format: cell-based
[1] = system: rat collagen-induced arthritis model; test: rat collagen-induced arthritis model; format: in vivo
[2] = system: rat antibody-mediated arthus model; test: rat antibody-mediated arthus model; format: in vivo
[3] = system: spontaneous canine pemphigus foliaceus; test: spontaneous canine pemphigus foliaceus; format: in vivo
blood platelets = test: ex vivo platelet aggregation, standard panel of platelet agonists; format: cell-based, human; settings: for platelet aggregation: ≤1 μM, standard panel of platelet agonists
[4] = in vivo
P-gp = P-gp (Homo sapiens, UniProt P08183); settings: not told
[5] = in vivo; remark: listed apart in the source
Excerpt: TEAEs include all AEs that start on or after the first dose of study medication, or AEs that are present prior to the first dose of study medication, but their severity or relationship increases after the first dose of study medication up to and including the final study medication dosing date. Within each preferred term, patients are counted only once if they had more than one event reported during the dosing period.
Non-hematologic DLT is considered any >Grade 3 non-hematologic toxicity per the NCI Common Terminology Criteria for Adverse Events (CTCAE), version 4.0, with the following exceptions: laboratory TEAEs that are asymptomatic and return to baseline or to Grade 1 within 7 days; fatigue; nausea, vomiting or diarrhea that return to baseline or Grade 1 within 7 days; and systemic reactions (such as, e.g., fever, headache) that return to baseline or Grade 1 within 7 days. Any toxicity that, at the discretion of the Investigator, is thought to warrant withholding the study drug for more than 7 days is also considered a DLT.
The AE Collection Period begins at the time of the first screening/eligibility assessment and ends at the end of the study for each patient. […] An AE can therefore be any unfavorable and unintended sign (including an abnormal laboratory finding, for example), symptom, or disease temporally associated with the use of an investigational product, whether or not considered related to the product. Investigators are instructed to record all AEs encountered during the clinical study in detail from the date of participant consent throughout the study follow-up period. Pre-existing conditions that worsen during a study are reported as AEs.
Investigators are instructed to report all clinical AEs encountered during the study. The intensity of AEs is graded based on the NCI CTCAE, Version 4.0 or higher. For any AEs not found in the CTCAE, a description of intensity grading can be found below: • Grade 1: Mild; asymptomatic or mild symptoms; clinical or diagnostic observations only; intervention not indicated. • Grade 2: Moderate; minimal, local or noninvasive intervention indicated; limiting age-appropriate instrumental activities of daily living. • Grade 3: Severe or medically significant but not immediately life-threatening; hospitalization or prolongation of hospitalization indicated; disabling; limiting self-care activities of daily living.

[6] = Phase 1 study, healthy volunteers; cited from earlier work
clinical = settings: human, in vivo
pemphigus patients = test: human pemphigus (PV; Study PRN1008-005)
[7] = system: mouse model of anti-platelet driven immune thrombocytopenia; test: mouse model of immune thrombocytopenia, platelet count

Sequence of P-gp (P08183 whole entry): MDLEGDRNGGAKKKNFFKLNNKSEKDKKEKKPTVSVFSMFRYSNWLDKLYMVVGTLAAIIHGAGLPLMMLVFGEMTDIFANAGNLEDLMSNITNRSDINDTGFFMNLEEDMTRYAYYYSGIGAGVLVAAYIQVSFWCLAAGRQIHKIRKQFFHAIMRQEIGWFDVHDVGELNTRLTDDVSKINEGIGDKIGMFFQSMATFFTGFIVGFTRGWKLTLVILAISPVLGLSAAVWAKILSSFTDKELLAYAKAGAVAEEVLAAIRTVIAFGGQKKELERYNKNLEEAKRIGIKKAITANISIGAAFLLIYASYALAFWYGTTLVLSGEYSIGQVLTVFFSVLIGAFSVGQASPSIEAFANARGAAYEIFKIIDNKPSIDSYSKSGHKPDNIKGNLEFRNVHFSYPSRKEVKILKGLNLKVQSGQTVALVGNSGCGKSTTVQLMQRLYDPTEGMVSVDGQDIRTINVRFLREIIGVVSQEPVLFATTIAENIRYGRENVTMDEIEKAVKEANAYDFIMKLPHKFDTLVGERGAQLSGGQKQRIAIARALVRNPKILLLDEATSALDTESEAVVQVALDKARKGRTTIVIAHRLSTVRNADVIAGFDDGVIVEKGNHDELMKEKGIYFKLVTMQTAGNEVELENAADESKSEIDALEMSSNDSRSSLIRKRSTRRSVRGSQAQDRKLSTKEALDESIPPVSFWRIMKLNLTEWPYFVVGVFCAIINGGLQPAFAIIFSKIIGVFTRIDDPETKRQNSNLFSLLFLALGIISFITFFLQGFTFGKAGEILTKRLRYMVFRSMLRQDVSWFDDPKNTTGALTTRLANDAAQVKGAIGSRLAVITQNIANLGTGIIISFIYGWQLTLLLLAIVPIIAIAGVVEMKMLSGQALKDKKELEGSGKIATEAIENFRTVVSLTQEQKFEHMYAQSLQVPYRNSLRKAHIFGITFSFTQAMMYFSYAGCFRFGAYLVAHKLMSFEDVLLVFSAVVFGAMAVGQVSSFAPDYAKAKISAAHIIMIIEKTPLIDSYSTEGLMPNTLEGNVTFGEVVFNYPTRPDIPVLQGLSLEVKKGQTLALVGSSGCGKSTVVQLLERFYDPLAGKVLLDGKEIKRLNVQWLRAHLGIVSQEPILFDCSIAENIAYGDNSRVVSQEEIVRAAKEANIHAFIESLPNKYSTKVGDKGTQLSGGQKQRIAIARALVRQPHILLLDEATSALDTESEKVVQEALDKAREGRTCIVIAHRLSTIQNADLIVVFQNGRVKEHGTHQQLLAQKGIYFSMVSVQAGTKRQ

For CC(C)(C=C(C#N)C(=O)N1CCC[C@@H](n2nc(-c3ccc(Oc4ccccc4)cc3F)c3c(N)ncnc32)C1)N1CCN(C2COC2)CC1 [PRN1008, (R)-2-[3-[4-amino-3-(2-fluoro-4-phenoxy-phenyl)pyrazolo[3,4-d]pyrimidin-1-yl]piperidine-1-carbonyl]-4-methyl-4-[4-(oxetan-3-yl)piperazin-1-yl]pent-2-enenitrile], the “number of kinases with >90% inhibition” value (251-kinase panel) was 6 kinases, the “human B cell activation” value (human B cell activation) was “profoundly inhibits” and the “antibody (IgG, IgE) mediated activation of immune cells via Fc receptor signaling” value (Fc receptor signaling) was “blocks”. For the same molecule, the anti-inflammatory effects [1] was “rapid and significant anti-inflammatory effects”, the anti-inflammatory effects [2] was “rapid and significant anti-inflammatory effects” and the anti-inflammatory effects [3] was “rapid and significant anti-inflammatory effects”. For the same molecule, the platelet aggregation (blood platelets; blood of ITP patients) was “no effect”, the platelet aggregation (blood platelets; blood of healthy volunteers) was “no effect” and the collagen-induced platelet aggregation (blood platelets; normal or ITP patient platelet samples, clinically relevant concentrations) was “did not impact”. The “impact of food on extent of absorption” value [4] was “does not appear to impact”, the P-gp substrate (P-gp) was “substrate” and the CYP3A inhibitor (CYP3A) was “inhibitor”. For the same molecule, the CYP3A substrate (CYP3A) was “substrate”, the “All related TEAEs, Grade 1” value ([5]; human) was 10 (21) n (%) and the “All related TEAEs, Grade 2” value ([5]; human) was 11 (23) n (%). The “Related TEAEs, Abdominal distension, Grade 1/2” value ([5]; human) was 3 (10) n (%), the “Related TEAEs, All TEAEs, Grade 1/2” value ([5]; human) was 11 (35) n (%) and the “Related TEAEs, Diarrhea, Grade 1” value ([5]; human) was 14 (30) n (%). For the same molecule, the “Related TEAEs, Diarrhea, Grade 1/2” value ([5]; human) was 7 (23) n (%), the “Related TEAEs, Diarrhea, Grade 2” value ([5]; human) was 2 (4) n (%) and the “Related TEAEs, Fatigue, Grade 1” value ([5]; human) was 5 (11) n (%). The “Related TEAEs, Fatigue, Grade 1/2” value ([5]; human) was 3 (10) n (%), the “Related TEAEs, Fatigue, Grade 2” value ([5]; human) was 1 (2) n (%) and the “Related TEAEs, Nausea, Grade 1” value ([5]; human) was 12 (26) n (%). For the same molecule, the “Related TEAEs, Nausea, Grade 1/2” value ([5]; human) was 8 (26) n (%), the “Related TEAEs, Nausea, Grade 2” value ([5]; human) was 1 (2) n (%) and the dose-limiting toxicities [5] was “No dose-limiting toxicities were observed”. The “related serious adverse events” value [5] was “No related serious adverse events were reported”, the thrombotic events [5] was “no thrombotic events” and the “treatment related bleeding or thrombotic events” value [5] was “no reported treatment related bleeding or thrombotic events”. For the same molecule, the “most commonly reported adverse events” value [6] was “gastrointestinal adverse events, including nausea/vomiting and diarrhea”, the “serious adverse events or deaths” value [6] was “No serious adverse events or deaths were reported” and the Tmax (clinical) was roughly 2.5 h. For the same molecule, the half-life (clinical; po) was 3 to 4 h, the “onset of clinical effect in most pemphigus patients” value (pemphigus patients; Study PRN1008-005) was no more than 4 weeks and the anti-inflammatory effects (pemphigus patients; human pemphigus vulgaris (PV)) was “rapid and significant anti-inflammatory effects”. The “platelet decrease from baseline” value ([7]; 10 mg/kg/d, anti-platelet challenge (vehicle 83.1%)) was 71.9% and the “platelet-loss (consumption)” value ([7]; mouse model of immune thrombocytopenia) was “significant dose dependent reduction”.
